Patent US8685956B2, “Compositions and methods for reducing the risk of agent-induced liver toxicity” (The Board of Trustees of The University of Illinois, priority 2009, dated 2014)
Like-named read-outs stand apart in the source and are kept apart here.

Assays:
[1] = system: APAP-induced liver toxicity in inbred strains with intact or deficient Bhmt2 activity; test: Strain-specific effect of SMM or SAM co-administration on APAP-induced liver toxicity; assay type: in vivo, mouse; settings: 3 hour after APAP
Experimental: The availability of two inbred strains with allelic variants that eliminate Bhmt2 enzyme activity enabled the hypothesis that Bhmt2 is a susceptibility factor for APAP-induced liver toxicity to be tested in vivo. The effect that co-administration of SAM or SMM, which act on sequential steps in the methionine/GSH biosynthesis pathway, had on APAP-induced liver toxicity in strains with intact or deficient Bhmt2 activity was analyzed.
Hepatic glutathione (GSH) and methionine levels and the serum ALT were measured 3 hour after APAP administration to inbred strains. The R and S in the lower panel indicate whether SMM or SAM co-administration should have a protective (Rescue) effect, or not have a beneficial (Susceptible) effect on APAP-induced liver toxicity, respectively.

Bhmt2 = target: T1, Bhmt2 (Homo sapiens, UniProt Q9H2M3); settings: Szegedi et al. 2008; cited from earlier work
T1 sequence (Q9H2M3 1-363): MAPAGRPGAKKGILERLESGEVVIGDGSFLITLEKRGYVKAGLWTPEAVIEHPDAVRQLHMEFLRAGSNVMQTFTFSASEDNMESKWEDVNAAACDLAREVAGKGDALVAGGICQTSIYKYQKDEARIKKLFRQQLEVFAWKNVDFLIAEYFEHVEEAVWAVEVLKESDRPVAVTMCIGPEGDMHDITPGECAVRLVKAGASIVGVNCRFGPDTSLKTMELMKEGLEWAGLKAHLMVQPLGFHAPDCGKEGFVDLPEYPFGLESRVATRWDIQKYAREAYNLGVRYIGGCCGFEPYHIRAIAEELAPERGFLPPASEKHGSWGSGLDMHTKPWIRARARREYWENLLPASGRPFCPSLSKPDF

inbred mouse strains = test: APAP-induced liver toxicity in a panel of inbred mouse strains (serum ALT activity); assay type: in vivo; settings: single 300 mg/kg intraperitoneal injection, 6 hour
Experimental: A panel of inbred mouse strains was studied using an integrated genetic, transcriptional and metabolomic approach in order to better characterize genetic factors affecting susceptibility to APAP-induced liver toxicity.
The liver toxic effect of APAP was assessed by measuring the serum alanine aminotransferase (ALT) activity after a single administration of toxic level (300 mg/kg, intraperitoneal injection) APAP.

hepatic glutathione = settings: after a toxic dose; James et al. 2003; cited from earlier work
[2] = system: APAP-induced hepatotoxicity; settings: cited from earlier work
APAP poisoning = settings: cited from earlier work

C[S+](C)CC[C@H](N)C(=O)[O-] [SMM, S-methylmethionine]
effect of co-administration on APAP-induced liver toxicity (hepatic GSH, methionine, serum ALT) ([1]; strains with active Bhmt2 enzyme (Gly27 allele)): protective effect
effect of co-administration on APAP-induced liver toxicity (hepatic GSH, methionine, serum ALT) ([1]; strains with inactive (Ser27 allele) Bhmt2 enzyme): not in strains with inactive (Ser27 allele) enzyme
Bhmt2 activity with the substance as methyl donor (Bhmt2): specific methyltransferase

CC(=O)Nc1ccc(O)cc1 [APAP, Acetaminophen]
liver injury (serum ALT activity) (inbred mouse strains; SJL/J mice): resistant phenotype
liver injury (serum alanine aminotransferase (ALT) activity) (inbred mouse strains; all strains other than SJL/J): Significant liver injury
depletion of hepatic glutathione (hepatic glutathione): ≤ 90%

CSCC[C@H](N)C(=O)O [methionine]
attenuation of APAP-induced hepatotoxicity ([2]; previously shown): attenuate APAP-induced hepatotoxicity

CC(=O)N[C@@H](CS)C(=O)O [N-acetylcysteine]
tolerability (APAP poisoning; oral administration): poorly tolerated
antidote effect in severe and ongoing APAP poisoning (APAP poisoning; patients): effective antidote

C[N+](C)(C)CC(=O)O [betaine]
Bhmt2 activity with the substance as methyl donor (Bhmt2): cannot use betaine as the methyl donor

C[S+](CC[C@H](N)C(=O)O)C[C@H]1O[C@@H](n2cnc3c(N)ncnc32)[C@H](O)[C@@H]1O (stereo partly drawn) [SAM, S-adenosylmethionine]
effect of co-administration on APAP-induced liver toxicity (hepatic GSH, methionine, serum ALT) ([1]; all strains): protective effect in all strains
Bhmt2 activity with the substance as methyl donor (Bhmt2): very low activity
hepatic GSH levels ([2]; C57BL/6J mice, APAP): preserve hepatic GSH levels
attenuation of APAP-induced hepatotoxicity ([2]; C57BL/6J mice): attenuate APAP-induced hepatotoxicity
attenuation of APAP-induced hepatotoxicity ([2]; previously shown): attenuate APAP-induced hepatotoxicity
